According to US20230103330A1, “MECHANISTIC BIOMARKER FOR PREDICTING THE SURVIVAL OF PANCREATIC CANCER PATIENTS” (The Regents of the University of California, priority 2020, published 2023):

Legend:
[1] = target: T1, PKCβII deleted pseudosubstrate (Rattus norvegicus, UniProt P68403, DEL19-36); test: Immunoblot of PKC priming phosphorylations after phosphatase inhibitor; format: cell-based; settings: COS-7 cells, 20 minutes prior to lysis
T1 construct: expressed in transfected cells; host or cells: COS-7
T1 sequence (P68403 with tags, fused parts or gaps isoform P68403-2 DEL19-36): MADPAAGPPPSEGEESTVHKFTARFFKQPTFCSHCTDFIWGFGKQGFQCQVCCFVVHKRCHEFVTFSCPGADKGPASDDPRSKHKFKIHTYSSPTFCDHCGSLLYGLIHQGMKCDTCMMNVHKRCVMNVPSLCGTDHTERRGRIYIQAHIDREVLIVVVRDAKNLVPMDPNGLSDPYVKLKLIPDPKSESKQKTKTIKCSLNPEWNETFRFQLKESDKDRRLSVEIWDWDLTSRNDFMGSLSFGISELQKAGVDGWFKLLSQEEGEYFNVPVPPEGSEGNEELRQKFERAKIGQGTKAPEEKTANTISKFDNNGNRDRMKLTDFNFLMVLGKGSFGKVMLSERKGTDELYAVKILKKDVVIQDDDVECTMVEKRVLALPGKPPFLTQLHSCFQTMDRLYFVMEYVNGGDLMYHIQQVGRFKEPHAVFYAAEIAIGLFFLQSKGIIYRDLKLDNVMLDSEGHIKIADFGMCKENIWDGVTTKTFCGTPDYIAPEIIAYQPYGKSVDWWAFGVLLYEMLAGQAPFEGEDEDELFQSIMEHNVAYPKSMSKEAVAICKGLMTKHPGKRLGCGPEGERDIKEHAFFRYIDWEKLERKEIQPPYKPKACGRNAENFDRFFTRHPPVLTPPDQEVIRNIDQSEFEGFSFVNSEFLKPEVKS
Method: FIG. 8. PKC APS Phosphorylation Is Not Regulated by a Calyculin-Sensitive Phosphatase. Western blot of lysates from COS-7 cells expressing RFP-tagged PKCβII wild-type (WT) or deleted pseudosubstrate (APS) and treated with DMSO (−) or Calyculin A (Cal, 100pM) and Go6976 (6pM) for 20 minutes prior to lysis. Immunoblots were probed with PKC phospho-specific antibodies against the activation loop (pThr^500), turn motif (pThr” ^1), or hydrophobic motif ([…]), total overexpressed PKC (HA), or phospho-serine substrate (pSer) as a positive control for Calyculin A.
Cells were lysed in PPHB: 50 mM NaPO4 (pH 7.5), 1% Triton X-100, 20 mM NaF, 1 mM Na4P207, 100 mM NaCl, 2 mM EDTA, 2 mM EGTA, 1 mM Na3VO4, 1 mM PMSF, […] leupeptin, 1 mM DTT, and […]. Phlpp1+/+ and Ph/pp1-/−MEFs were lysed in 50 mM Tris (pH 7.4), 1% Triton X-100, 50 mM NaF, 10 mM Na4P207, 100 mM NaCl, 5 mM EDTA, 1 mM Na3VO4, 1 mM PMSF, […] leupeptin, and […]. Triton-soluble fractions were analyzed by SDS-PAGE on 7% big gels to observe phosphorylation shift, transfer to PVDF membrane (Biorad), and western blotting via chemiluminescence SuperSignal West reagent (Thermo Fisher) on a FluorChem Q imaging system (ProteinSimple). In western blots, the asterisk (*) denotes the position of mature, phosphorylated PKC; whereas, the dash (−) indicates the position of unphosphorylated PKC. […]

[2] = target: T2, PKCβII (Rattus norvegicus, UniProt P68403); test: C kinase activity reporter (CKAR) FRET assay of cellular PKC activity; format: cell-based; settings: for activation of WT PKCa and PKCβII (CKAR): COS7 cells, agonist treatment
T2 construct: expressed in transfected cells; host or cells: COS7
T2 sequence (P68403 1-673 isoform P68403-2): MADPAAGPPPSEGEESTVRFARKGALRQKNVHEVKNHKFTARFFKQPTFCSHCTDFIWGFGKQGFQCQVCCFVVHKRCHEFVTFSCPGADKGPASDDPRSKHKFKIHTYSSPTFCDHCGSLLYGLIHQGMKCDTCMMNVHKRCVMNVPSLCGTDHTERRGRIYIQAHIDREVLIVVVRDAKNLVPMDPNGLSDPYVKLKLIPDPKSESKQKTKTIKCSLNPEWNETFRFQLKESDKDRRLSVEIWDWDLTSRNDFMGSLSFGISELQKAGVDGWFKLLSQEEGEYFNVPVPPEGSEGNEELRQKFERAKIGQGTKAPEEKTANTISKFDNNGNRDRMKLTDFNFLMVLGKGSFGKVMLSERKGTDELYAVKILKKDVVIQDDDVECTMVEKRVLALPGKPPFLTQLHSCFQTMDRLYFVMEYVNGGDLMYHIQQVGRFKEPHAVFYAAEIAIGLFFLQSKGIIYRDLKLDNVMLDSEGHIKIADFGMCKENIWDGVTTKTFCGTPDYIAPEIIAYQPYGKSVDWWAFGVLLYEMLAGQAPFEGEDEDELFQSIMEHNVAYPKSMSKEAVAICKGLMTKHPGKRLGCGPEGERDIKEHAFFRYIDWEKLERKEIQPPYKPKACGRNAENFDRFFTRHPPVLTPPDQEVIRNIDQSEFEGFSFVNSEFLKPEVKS
Method: (§1) For activity experiments COS7 cells were co-transfected with the indicated mCherry-tagged PKC construct and CKAR. For Kinameleon experiments, the indicated Kinameleon construct containing mYFP and mCFP was transfected alone. For translocation experiments, COS7 cells were co-transfected with the indicated mYFPtagged construct and plasma-membrane targeted mCFP at a ratio of 10:1. Baseline images were acquired every 15 s for 2 min prior to ligand addition. F6rster resonance energy transfer (FRET) ratios represent mean±SEM from at least three independent experiments.
(§2) All data were normalized to the baseline FRET ratio of each individual cell unless noted that absolute FRET ratio was plotted or traces were normalized to levels post-inhibitor addition. […] Every experiment contained an mCherry-transfected control to measure endogenous activity, and an mCherry-tagged WT (or deleted pseudosubstrate) PKC. Control traces are depicted as dotted lines: specifically, the endogenous trace in FIG. 1E and the deleted pseudosubstrate trace in FIGS. 2G and 31, were redrawn to serve as a point of reference in those figures (data were acquired and derived in the same experiments which generated all the data in FIGS. 1A-1E and FIGS. 2A-2G, respectively).

[3] = target: WT PKCβII (Rattus norvegicus, UniProt P68403); settings: COS7 cells, PDBu 200 nM
Chain of WT PKCβII (P68403 1-673 isoform P68403-2): as above
Method: as §1, §2

SMILES	rescue of phosphorylation at the three priming sites of pseudosubstrate-deleted PKC [1]	activation of WT PKCa and PKCβII (CKAR) [2]	CKAR phosphorylation ([2]; COS7 cells expressing WT PKC or turn motif mutant (T641A), PDBu 200 nM)	FRET ratio of Kinameleon reporter [3]
COC[C@@H]([C@H](O)[C@H](O)C(=O)NCC[C@H](C)c1nc(/C=C/C[C@@H]2O[C@]3(C[C@@H](O)[C@@H]2C)O[C@H]([C@H](C[C@H](O)[C@H](C)[C@H](O)[C@H](C)/C=C(C)/C(C)=C/C=C/C(C)=C\C#N)OC)[C@H](OP(=O)(O)O)C3(C)C)co1)N(C)C [Calyculin A]	could not be rescued	–	–	–
O=c1ccn([C@@H]2O[C@H](COP(=O)(O)OP(=O)(O)OP(=O)(O)O)[C@@H](O)[C@H]2O)c(=O)[nH]1 [UTP, uridine triphosphate]	–	activated	–	–
CCCC(=O)O[C@@H]1[C@@H](C)[C@@]2(O)[C@@H](C=C(CO)C[C@]3(O)C(=O)C(C)=C[C@@H]23)[C@@H]2C(C)(C)[C@]12OC(=O)CCC [PDBu, Phorbol 12,13-dibutyrate]	–	activated	robust increase in CKAR phosphorylation	increase in FRET ratio
